Source: patent publication US6808714B2, “Detection of sarcocystis neurona” (priority 2000, dated 2004)

Tested on: S. neurona merozoites
Assay: Ionophore A23187-stimulated merozoite release from infected host cell monolayers
Format: cell-based, Sarcocystis neurona
Experimental: A stock solution of calcium ionophore A23187 (Sigma) was prepared in dimethylsulfoxide to a final concentration of 1 mg/ml and stored at −20° C. Infected cell monolayers (see example 1) at 12 days post infection were washed three times with PBS or Hanks Balanced Salts Solution (HBSS), and 10 ml of A23187 (1 μM in HBSS) was added to the washed monolayer and incubated at 37° C. for 40 min. in 5% CO2, 95% air. Free merozoites were collected by centrifugation and washed in PBS as above. Parasites released by this method were examined by density gradient centrifugation, but further separation from host cell debris by density gradient centrifugation was not routinely necessary. For further purification, parasites recovered from the supernatant were isolated from host cell debris on a discontinuous buoyant density gradient using Iodixanol (Optiprep) in PBS or HBSS. Merozoites were suspended gently in 1.0 ml PBS and were layered onto a preformed, three step discontinuous gradient with layers of 1.03, 1.04 and 1.06 g/ml in a 15 ml round bottom centrifuge tube. The gradient was centrifuged at 1000×g for 25 min at 20° C. with the brake off. Fractions containing particulate material at each interface were collected and examined microscopically. The fractions(s) containing significant amounts of merozoites were collected for use.
Lung cells at 60% confluence were seeded at a density of 0.1 merozoites per host cell and parasite growth was monitored microscopically for 30 days. Free parasites were not observed until 10 days post infection. During most of the period of observation, the percentage of extracellular parasites was less than 10%. On day 28, the largest number of free parasites was counted; but the next day the numbers of extracellular parasites was back to less than 10%. Duplicate 75 cm flasks were grown for 12 days in HL cells and treated with HBSS or HBSS with 1 μM A23187. Free parasites were collected by centrifugation and counted with a hemocytometer.

## CNc1ccc2oc(C[C@H]3O[C@@]4(CC[C@H]3C)O[C@H]([C@H](C)C(=O)c3ccc[nH]3)[C@H](C)C[C@H]4C)nc2c1C(=O)O [A23187]
Infected GT, HFF, CHO, BHK and primary EM cells, same conditions
  Merozoite release in response to ionophore treatment: refractory
Infected host cells incubated 40 min in 1 μM A23187
  Enhancement of collection of parasites free in the culture medium: 90 fold
Parasitized BM, BM0617, HL, BT and ED cells
  Merozoite release in response to ionophore treatment: released merozoites
